# Data taken from patent US7709482B2, “Polycyclic heteroaryl substituted triazoles useful as Axl inhibitors” (Rigel Pharmaceuticals, Inc., priority 2006, dated 2010).
# Target: T1, Axl (Homo sapiens, UniProt P30530)
# T1 construct: endogenous in cells; host or cells: HeLa cells
# T1 sequence (P30530 26-894): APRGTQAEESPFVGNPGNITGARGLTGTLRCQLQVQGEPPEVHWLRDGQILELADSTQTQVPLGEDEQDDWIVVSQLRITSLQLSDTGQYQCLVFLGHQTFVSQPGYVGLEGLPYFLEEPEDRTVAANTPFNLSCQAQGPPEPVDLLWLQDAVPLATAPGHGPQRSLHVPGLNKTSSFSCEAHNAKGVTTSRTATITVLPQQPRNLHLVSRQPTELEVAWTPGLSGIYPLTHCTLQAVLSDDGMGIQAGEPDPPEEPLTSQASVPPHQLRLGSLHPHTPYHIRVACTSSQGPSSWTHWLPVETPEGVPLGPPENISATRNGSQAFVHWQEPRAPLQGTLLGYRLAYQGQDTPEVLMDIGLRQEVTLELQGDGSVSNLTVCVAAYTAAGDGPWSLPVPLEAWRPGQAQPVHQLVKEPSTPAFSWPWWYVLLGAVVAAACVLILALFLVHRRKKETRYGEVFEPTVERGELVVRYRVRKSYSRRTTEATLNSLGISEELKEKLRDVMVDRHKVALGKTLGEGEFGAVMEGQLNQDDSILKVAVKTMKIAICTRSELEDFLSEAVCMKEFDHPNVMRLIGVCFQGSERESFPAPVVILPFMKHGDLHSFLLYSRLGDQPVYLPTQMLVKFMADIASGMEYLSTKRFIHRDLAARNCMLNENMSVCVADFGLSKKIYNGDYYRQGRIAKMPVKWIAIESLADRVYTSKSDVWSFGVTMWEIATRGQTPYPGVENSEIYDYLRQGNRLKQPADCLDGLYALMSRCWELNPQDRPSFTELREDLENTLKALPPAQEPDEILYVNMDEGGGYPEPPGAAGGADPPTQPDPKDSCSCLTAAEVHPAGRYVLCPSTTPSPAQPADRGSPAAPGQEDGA
# Assay: Phospho-Akt In-Cell Western Assay (inhibition of Axl activity after Axl-antibody cross-linking)
# Format: cell-based
# Conditions: inhibition of Axl activity; Table 1, compounds of formula (Ia); read-out: IC50
# Procedure, shortened: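 HeLa cells on poly-L-lysine, starved 24 h in 0.5% FCS DMEM with Axl/Fc 500 ng/mL, pre-treated with compound 1 h at 37 °C, then stimulated 5 min by anti-Axl/anti-mouse antibody cross-linking. Fixed cells probed for phospho-Akt with HRP secondary and chemiluminescent detection.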
row,SMILES,IC50
1,"Nc1nc(Nc2ccc(N3CCC(N4CCCC4)CC3)c(F)c2)nn1-c1cc2c(nn1)-c1ccccc1OC21CCCC1 [Compound 176, 1-(spiro[chromeno[4,3-c]pyridazine-5,1′-cyclopentane]-3-yl)-N^3-(3-fluoro-4-(4-(pyrrolidin-1-yl)piperidin-1-yl)phenyl)-1H-1,2,4-triazole-3,5-diamine]",1 to 10 µM
2,"Nc1nc(Nc2ccc(N3CCN(CC4CC4)CC3)nc2)nn1-c1cc2c(nn1)-c1ccccc1CCC2 [Compound 187, 1-(6,7-dihydro-5H-benzo[6,7]cyclohepta[1,2-c]pyridazin-3-yl)-N^3-(2-(4-cyclopropylmethylpiperazin-1-yl)pyridine-5-yl)-1H-1,2,4-triazole-3,5-diamine]",1 to 10 µM
3,"Nc1nc(Nc2cnc3c(c2)CN(C2CCCC2)CC3)nn1-c1cc2c(nn1)-c1ccccc1CCC2 [Compound 190, 1-(6,7-dihydro-5H-benzo[6,7]cyclohepta[1,2-c]pyridazin-3-yl)-N^3-(6-cyclopentyl-5,6,7,8-tetrahydro-1,6-naphthyridine-3-yl)-1H-1,2,4-triazole-3,5-diamine]",< 1 µM
4,"Nc1nc(Nc2cnc3c(c2)CC[C@H](N2CCCC2)CC3)nn1-c1cc2c(nn1)-c1ccccc1CCC2 [Compound 191, 1-(6,7-dihydro-5H-benzo[6,7]cyclohepta[1,2-c]pyridazin-3-yl)-N^3-((S)-7-(pyrrolidin-1-yl)-6,7,8,9-tetrahydro-5H-cyclohepta[b]pyridine-3-yl)-1H-1,2,4-triazole-3,5-diamine]",< 1 µM
5,"Nc1nc(Nc2ccc(N3CCN(C4CCCCC4)CC3)c(F)c2)nn1-c1cc(-c2ccccc2)c2c(n1)-c1ccccc1CCC2 [Compound 192, 1-(4-phenyl-6,7-dihydro-5H-benzo[6,7]cyclohepta[1,2-b]pyridin-2-yl)-N^3-(3-fluoro-4-(4-cyclohexylpiperazin-1-yl)phenyl)-1H-1,2,4-triazole-3,5-diamine]",10 to 20 µM
6,"CN1CCN(c2ccc(Nc3nc(N)n(-c4cc(-c5ccccc5)c5c(n4)-c4ccccc4CCC5)n3)cc2)CC1 [Compound 193, 1-(4-phenyl-6,7-dihydro-5H-benzo[6,7]cyclohepta[1,2-b]pyridin-2-yl)-N^3-(4-(4-methylpiperazin-1-yl)phenyl)-1H-1,2,4-triazole-3,5-diamine]",1 to 10 µM
7,"COC(=O)[C@@H]1CCCN1C1CCc2ccc(Nc3nc(N)n(-c4cc5c(nn4)-c4ccccc4CCC5)n3)cc2CC1 (stereo partly drawn) [Compound 194, 1-(6,7-dihydro-5H-benzo[6,7]cyclohepta[1,2-c]pyridazin-3-yl)-N^3-((7-(2-(S)-methyloxycarbonyl)pyrrolidin-1-yl)-6,7,8,9-tetrahydro-5H-benzo[7]annulene-2-yl)-1H-1,2,4-triazole-3,5-diamine]",< 1 µM
8,"Nc1nc(Nc2ccc3c(c2)CCC(N2CCC[C@H]2C(=O)O)CC3)nn1-c1cc2c(nn1)-c1ccccc1CCC2 (stereo partly drawn) [Compound 195, 1-(6,7-dihydro-5H-benzo[6,7]cyclohepta[1,2-c]pyridazin-3-yl)-N^3-((7-(2-(S)-carboxy)pyrrolidin-1-yl)-6,7,8,9-tetrahydro-5H-benzo[7]annulene-2-yl)-1H-1,2,4-triazole-3,5-diamine]",1 to 10 µM
9,"CN1CCN(C2CCN(CC=Cc3ccc(Nc4nc(N)n(-c5cc6c(nn5)-c5ccccc5CCC6)n4)cc3)CC2)CC1 [Compound 196, 1-(6,7-dihydro-5H-benzo[6,7]cyclohepta[1,2-c]pyridazin-3-yl)-N^3-(4-(4-(4-methylpiperazin-1-yl)piperidin-1-ylprop-1-enyl)phenyl)-1H-1,2,4-triazole-3,5-diamine]",< 1 µM
10,"Nc1nc(Nc2ccc(C=CCN3CCC(N4CCCCC4)CC3)cc2)nn1-c1cc2c(nn1)-c1ccccc1CCC2 [Compound 197, 1-(6,7-dihydro-5H-benzo[6,7]cyclohepta[1,2-c]pyridazin-3-yl)-N^3-(4-(4-(piperidin-1-yl)piperidin-1-ylprop-1-enyl)phenyl)-1H-1,2,4-triazole-3,5-diamine]",1 to 10 µM
11,"Nc1nc(Nc2ccc(C=CCN3CCCCC3)cc2)nn1-c1cc2c(nn1)-c1ccccc1CCC2 [Compound 198, 1-(6,7-dihydro-5H-benzo[6,7]cyclohepta[1,2-c]pyridazin-3-yl)-N^3-(4-(piperidin-1-ylprop-1-enyl)phenyl)-1H-1,2,4-triazole-3,5-diamine]",< 1 µM
12,"Nc1nc(Nc2ccc(C=CCN3CCCC3)cc2)nn1-c1cc2c(nn1)-c1ccccc1CCC2 [Compound 199, 1-(6,7-dihydro-5H-benzo[6,7]cyclohepta[1,2-c]pyridazin-3-yl)-N^3-(4-(pyrrolidin-1-ylprop-1-enyl)phenyl)-1H-1,2,4-triazole-3,5-diamine]",< 1 µM
13,"CN(C)C1CCN(CC=Cc2ccc(Nc3nc(N)n(-c4cc5c(nn4)-c4ccccc4CCC5)n3)cc2)C1 (stereo not shown) [Compound 200, 1-(6,7-dihydro-5H-benzo[6,7]cyclohepta[1,2-c]pyridazin-3-yl)-N^3-(4-(3-dimethylaminopyrrolidin-1-ylprop-1-enyl)phenyl)-1H-1,2,4-triazole-3,5-diamine]",< 1 µM
14,"CCN(CC)C1CCN(CC=Cc2ccc(Nc3nc(N)n(-c4cc5c(nn4)-c4ccccc4CCC5)n3)cc2)C1 (stereo not shown) [Compound 201, 1-(6,7-dihydro-5H-benzo[6,7]cyclohepta[1,2-c]pyridazin-3-yl)-N^3-(4-(3-diethylaminopyrrolidin-1-ylprop-1-enyl)phenyl)-1H-1,2,4-triazole-3,5-diamine]",< 1 µM
15,"C[C@H]1CN(c2ccc(Nc3nc(N)n(-c4cc5c(nn4)-c4ccccc4CCC5)n3)cn2)CCN1CC1CC1 [Compound 202, 1-(6,7-dihydro-5H-benzo[6,7]cyclohepta[1,2-c]pyridazin-3-yl)-N^3-(2-(3-(S)-methyl-4-cyclopropylmethylpiperazin-1-yl)pyridine-5-yl)-1H-1,2,4-triazole-3,5-diamine]",< 1 µM

# Other lines, results leading:
row,IC50,SMILES
1,< 1 µM,"Nc1nc(Nc2ccc(N3CCC(N4CCCC4)CC3)c(F)c2)nn1-c1cc2c(nn1)-c1ccccc1CCC2 [Compound 177, 1-(6,7-dihydro-5H-benzo[6,7]cyclohepta[1,2-c]pyridazin-3-yl)-N^3-(3-fluoro-4-(4-pyrrolidin-1-ylpiperidin-1-yl)phenyl)-1H-1,2,4-triazole-3,5-diamine]"
2,< 1 µM,"Nc1nc(Nc2ccc(N3CCC(N4CCCC4)CC3)c(F)c2)nn1-c1cc2c(nn1)CCCc1ccccc1-2 [Compound 178, 1-(6,7-dihydro-5H-benzo[6,7]cyclohepta[4,5-c]pyridazin-2-yl)-N^3-(3-fluoro-4-(4-pyrrolidin-1-ylpiperidin-1-yl)phenyl)-1H-1,2,4-triazole-3,5-diamine]"
3,< 1 µM,"CN1CCN(C2CCN(c3ccc(Nc4nc(N)n(-c5cc6c(nn5)-c5ccccc5CCC6)n4)cc3F)CC2)CC1 [Compound 179, 1-(6,7-dihydro-5H-benzo[6,7]cyclohepta[1,2-c]pyridazin-3-yl)-N^3-(3-fluoro-4-(4-(4-methylpiperazin-1-yl)piperidin-1-yl)phenyl)-1H-1,2,4-triazole-3,5-diamine]"
4,< 1 µM,"CN(C)[C@@H]1CCN(c2ccc(Nc3nc(N)n(-c4cc5c(nn4)-c4ccccc4CCC5)n3)cc2F)C1 [Compound 180, 1-(6,7-dihydro-5H-benzo[6,7]cyclohepta[1,2-c]pyridazin-3-yl)-N^3-(3-fluoro-4-(3-(3R)-dimethylaminopyrrolidin-1-yl)phenyl)-1H-1,2,4-triazole-3,5-diamine]"
5,< 1 µM,"CCN(CC)C1CCc2ccc(Nc3nc(N)n(-c4cc5c(nn4)-c4ccccc4CCC5)n3)cc2CC1 (stereo not shown) [Compound 185, 1-(6,7-dihydro-5H-benzo[6,7]cyclohepta[1,2-c]pyridazin-3-yl)-N^3-(7-diethylamino-6,7,8,9-tetrahydro-5H-benzo[7]annulene-2-yl)-1H-1,2,4-triazole-3,5-diamine]"
6,< 1 µM,"Nc1nc(Nc2ccc3c(c2)CCC(NC2CCCC2)CC3)nn1-c1cc2c(nn1)-c1ccccc1CCC2 (stereo not shown) [Compound 186, 1-(6,7-dihydro-5H-benzo[6,7]cyclohepta[1,2-c]pyridazin-3-yl)-N^3-(7-cyclopentylamino-6,7,8,9-tetrahydro-5H-benzo[7]annulene-2-yl)-1H-1,2,4-triazole-3,5-diamine]"
7,< 1 µM,"Nc1nc(Nc2cnc3c(c2)CC(N2CCCC2)CC3)nn1-c1cc2c(nn1)-c1ccccc1CCC2 (stereo not shown) [Compound 189, 1-(6,7-dihydro-5H-benzo[6,7]cyclohepta[1,2-c]pyridazin-3-yl)-N^3-(6-(pyrrolidin-1-yl)-5,6,7,8-tetrahydroquinolin-3-yl)-1H-1,2,4-triazole-3,5-diamine]"
